In the supplement of paper PMC7840683:
± gives the standard deviation of the averaged measurements.

Test system: HepaRG
Experiment: LDH release cytotoxicity, % of total lysis control; higher = more cytotoxic
Conditions: 48 h
Summary of the method: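 On collagen I-coated 96-well plates, single-lot HepaRG cells were exposed for 48 h, in duplicate, to eight-point half-log series of test chemicals beginning at 100 µM. The exposure medium was serum-free induction medium with 0.5% DMSO, and total lysis wells got 0.1% Triton X. Resorufin fluorescence from the CytoTox-ONE reaction, read on a Tecan Safire, reported LDH in 50 µL of spent medium. Percent cytotoxicity came from normalization to on-plate vehicle and total lysis controls, averaged over the duplicates.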

Compound	LDH release cytotoxicity (0.03162 µM) [%]	LDH release cytotoxicity (0.1 µM) [%]	LDH release cytotoxicity (0.3162278 µM) [%]	LDH release cytotoxicity (1 µM) [%]	LDH release cytotoxicity (3.16228 µM) [%]	LDH release cytotoxicity (10 µM) [%]	LDH release cytotoxicity (31.6228 µM) [%]	LDH release cytotoxicity (100 µM) [%]	LDH release cytotoxicity (0.031623 µM) [%]	LDH release cytotoxicity (0.316228 µM) [%]	LDH release cytotoxicity (0.0328877 µM) [%]	LDH release cytotoxicity (0.104 µM) [%]	LDH release cytotoxicity (0.328877 µM) [%]	LDH release cytotoxicity (1.04 µM) [%]	LDH release cytotoxicity (3.28877 µM) [%]	LDH release cytotoxicity (10.4 µM) [%]	LDH release cytotoxicity (32.8877 µM) [%]	LDH release cytotoxicity (104 µM) [%]
O=C1CN(N=Cc2ccc([N+](=O)[O-])o2)C(=O)N1 [Nitrofurantoin]	-0.977 ± 0.36	-1.36 ± 0.74	-1.01 ± 0.51	-0.456 ± 1.2	-1.09 ± 0.89	-0.861 ± 0.77	-0.189 ± 0.6	2.15 ± 0.92										
NC(=O)N=NCc1ccc([N+](=O)[O-])o1 [Nitrofurazone]	-0.299 ± 0.59	-1.51 ± 0.4	-1.48 ± 0.51	-1.87 ± 0.52	-1.76 ± 0.92	-0.788 ± 0.29	-0.997 ± 0.33	0.128 ± 0.43										
CCCCCCCCC(=O)O [Nonanoic acid]	-1.22 ± 1.1	-1.24 ± 0.71	-0.597 ± 0.11	-1.56 ± 0.047	-2.05 ± 0.21	-1.39 ± 0.62	-1.11 ± 0.22	3.09 ± 0.27										
C#CC1(O)CCC2C3CCC4=CC(=O)CCC4C3CCC21C (configuration not stated) [Norethindrone]	-0.43 ± 0.47	0.00115 ± 0.14	-0.373 ± 0.45	-0.047 ± 0.53	0.727 ± 1	0.906 ± 1.7	2.7 ± 1.3	2.69 ± 0.34										
CN=C1C=NN(c2cccc(C(F)(F)F)c2)C(=O)C1Cl (configuration not stated) [Norflurazon]	-0.275 ± 1.1	-1.08 ± 0.48	-0.0751 ± 2	0.0859 ± 2.5	-1.2 ± 0.27	-0.411 ± 0.49	0.0481 ± 1.5	1.81 ± 1.8										
O=C(NC(=O)c1c(F)cccc1F)Nc1ccc(OC(F)(F)C(F)OC(F)(F)F)c(Cl)c1 (configuration not stated) [Novaluron]		-3.48 ± 0.26		-4.4 ± 1.3	-3.9 ± 0.22	-4.16 ± 0.54	-1.88 ± 0.94	4.68 ± 1.6	-0.704 ± 1.1	-3.95 ± 0.86								
CCCCCCCCOc1ccc(C(=O)c2ccccc2)c(O)c1 [Octabenzone]	-0.784 ± 0.38	-1.09 ± 0.34	-0.164 ± 0.29	0.7228 ± 0.0064	0.706 ± 0.87	0.678 ± 2.1	1.22 ± 0.62	1.8 ± 0.62										
CCCCCCCCCCCCCCCCCC(=O)O [Octadecanoic acid]	-0.507 ± 0.67	-1.75 ± 1.4	-1.54 ± 0.31	-1.46 ± 0.77	-1.45 ± 0.023	-0.538 ± 0.059	-0.0805 ± 0.49	0.581 ± 0.81										
C[Si]1(C)O[Si](C)(C)O[Si](C)(C)O[Si](C)(C)O1 [Octamethylcyclotetrasiloxane]	-1.66 ± 0.14	-2.19 ± 2.6	-0.981 ± 0.89	-1.15 ± 0.56	-1.27 ± 0.5	-0.835 ± 0.65	-1.36 ± 1.4	1.7 ± 1.9										
CCCCCCCC=O [Octanal]	-2.27 ± 0.13	-2.49 ± 0.035	-2.18 ± 1.1	-1.59 ± 0.17	-1.99 ± 0.053	-1.65 ± 0.19	-0.367 ± 0.076	-0.293 ± 0.53										
CCCCCCCC(=O)O [Octanoic acid]	-1.17 ± 0.13	-1.02 ± 0.23	-0.609 ± 0.43	-0.537 ± 0.81	-0.391 ± 0.73	-0.933 ± 1.1	-0.626 ± 0.1	0.799 ± 0.12										
CCCCCCCCn1sccc1=O [Octhilinone]											-1.41 ± 0.74	-1.11 ± 0.18	-1.8 ± 0.29	-2.06 ± 0.24	-1.28 ± 0.083	-1.43 ± 0.041	-0.0918 ± 0.75	41.4 ± 8.2
CC(C)(C)CC(C)(C)c1ccc(O)c(-n2nc3ccccc3n2)c1 [Octrizole]	-2.72 ± 1.6	-2.89 ± 0.71	-2.68 ± 0.86	-3.09 ± 0.49	-3.1 ± 0.38	-2.49 ± 0.85	-1.9 ± 1.4	-2.37 ± 0.56										
CCCCCCCCOC(=O)c1cc(O)c(O)c(O)c1 [Octyl gallate]	-1.14 ± 0.66	-0.159 ± 0.23	-0.124 ± 0.33	-0.776 ± 1.1	0.219 ± 0.33	-0.238 ± 0.52	-1.86 ± 0.4	2.05 ± 1.3										
CCCCC(CC)CN1C(=O)C2C3C=CC(C3)C2C1=O (configuration not stated) [Octylbicycloheptenedicarboximide]	0.282 ± 1.1	-0.366 ± 0.72	-0.0268 ± 1.1	-1.18 ± 0.3	-0.584 ± 0.76	-0.999 ± 0.41	-1.23 ± 0.39	8.34 ± 1										
CCCN(CCC)c1c([N+](=O)[O-])cc(S(N)(=O)=O)cc1[N+](=O)[O-] [Oryzalin]	-2.37 ± 0.48	-2.04 ± 0.77	-0.725 ± 1.5	-1.89 ± 1.1	-2.11 ± 0.66	-2.88 ± 0.44	-1.72 ± 0.24	77.1 ± 9.5										
CC(C)Oc1cc(-n2nc(C(C)(C)C)oc2=O)c(Cl)cc1Cl [Oxadiazon]	-0.101 ± 1	-0.564 ± 0.81	-0.449 ± 1.2	0.329 ± 0.022	0.576 ± 0.019	0.044 ± 0.0027	0.449 ± 0.49	13.02 ± 0.12										
CNC(=O)ON=C(SC)C(=O)N(C)C [Oxamyl]	-0.761 ± 0.13	-0.802 ± 0.67	-1.45 ± 0.73	-1.85 ± 0.63	-1.65 ± 0.22	-1.06 ± 0.34	-1.05 ± 0.48	-1.42 ± 0.44										
CCOc1cc(Oc2ccc(C(F)(F)F)cc2Cl)ccc1[N+](=O)[O-] [Oxyfluorfen]	-0.516 ± 0.33	0.229 ± 1.1	-0.848 ± 0.08	-0.859 ± 0.59	-0.159 ± 0.1	-0.932 ± 0.39	-2.53 ± 0.26	-1.47 ± 0.42										
